Results on 40 compounds are retold here after ChEMBL document CHEMBL1127794, “Structure-activity relationships of 1,3-dialkylxanthine derivatives at rat A3 adenosine receptors” (J Med Chem, 1994).

For assay [1], the target named is Adenosine receptors; A1 & A3 (Rattus norvegicus) (UniProt P25099+P28647). As to the kind of experiment: Ratio of selectivity for A3 and A1 receptors at rat brain.
The target of assay [2] is T1, Adenosine receptor A3 (Rattus norvegicus) (UniProt P28647).
T1 sequence (whole entry): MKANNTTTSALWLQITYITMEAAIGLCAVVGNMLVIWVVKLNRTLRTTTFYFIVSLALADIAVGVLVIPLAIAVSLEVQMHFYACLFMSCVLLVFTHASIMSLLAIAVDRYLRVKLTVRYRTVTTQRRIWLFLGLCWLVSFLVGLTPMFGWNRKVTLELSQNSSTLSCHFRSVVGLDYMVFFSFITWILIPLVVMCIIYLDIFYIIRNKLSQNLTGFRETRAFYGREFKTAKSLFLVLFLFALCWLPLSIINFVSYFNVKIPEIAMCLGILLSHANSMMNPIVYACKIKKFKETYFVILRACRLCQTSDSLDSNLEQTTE
Kind of assay: Tested for the binding affinity, for displacement of [125I]AB-MECA in membranes of CHO cells stably transfected with the rat A3-cDNA at the 10e-5 concentration (M). The assay is classed as cell membranes.

The target in assay [3] is Adenosine receptor A2a (Rattus norvegicus, UniProt P30543).
Adenosine receptor A2a, sequence (P30543 whole entry): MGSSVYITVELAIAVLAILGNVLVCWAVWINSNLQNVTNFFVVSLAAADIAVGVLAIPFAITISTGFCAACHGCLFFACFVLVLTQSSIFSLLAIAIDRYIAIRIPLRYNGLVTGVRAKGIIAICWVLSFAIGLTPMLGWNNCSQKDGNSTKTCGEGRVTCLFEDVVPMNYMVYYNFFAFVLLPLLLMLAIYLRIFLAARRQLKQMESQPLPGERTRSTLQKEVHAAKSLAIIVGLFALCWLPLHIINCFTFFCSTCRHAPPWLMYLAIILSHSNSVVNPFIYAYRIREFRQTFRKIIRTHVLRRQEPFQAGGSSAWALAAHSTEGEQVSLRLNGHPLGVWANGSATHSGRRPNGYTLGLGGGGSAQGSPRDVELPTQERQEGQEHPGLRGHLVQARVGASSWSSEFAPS
Description: Displacement of [3H]-CGS- 21680 from adenosine A2a receptors of rat striatal membrane
The target in assay [4] is T2, Adenosine receptor A1 (Rattus norvegicus, UniProt P25099).
T2 sequence (P25099 whole entry): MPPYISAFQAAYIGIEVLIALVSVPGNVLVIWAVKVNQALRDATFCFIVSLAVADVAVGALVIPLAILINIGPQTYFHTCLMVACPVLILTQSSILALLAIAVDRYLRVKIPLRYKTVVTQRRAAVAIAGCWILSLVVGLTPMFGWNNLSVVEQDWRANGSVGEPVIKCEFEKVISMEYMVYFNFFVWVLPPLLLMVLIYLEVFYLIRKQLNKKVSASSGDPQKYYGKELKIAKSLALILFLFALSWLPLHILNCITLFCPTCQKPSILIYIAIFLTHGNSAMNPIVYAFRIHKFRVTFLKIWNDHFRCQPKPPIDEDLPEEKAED
Description: Displacement of [3H]PIA from adenosine A1 receptors of rat brain membrane

The target in assay [5] is T3, Adenosine receptor A3 (Rattus norvegicus, UniProt P28647).
T3 sequence (P28647 whole entry): T1 sequence (whole entry)
As to the kind of experiment: Displacement of [125I]AB-MECA from membranes of CHO cells stably transfected with the rat adenosine A3 receptor cDNA. Format: cell membranes.

Assay [6] concerns the target T1, Adenosine receptor A3 (Rattus norvegicus). As to the kind of experiment: Tested for the binding affinity, for displacement of [125I]AB-MECA in membranes of CHO cells stably transfected with the rat A3-cDNA at the 3*10e-5 concentration (M). The assay is classed as cell membranes.
The target of assay [7] is Adenosine receptor A2a (Rattus norvegicus) (UniProt P30543). Kind of assay: Tested for the binding affinity, for displacement of [3H]-CGS- 21680 in A2a receptors of rat striatal membrane at 10e-5 concentration (M).
Adenosine receptor A2a (Rattus norvegicus), sequence (P30543 whole entry): as the sequence (P30543 whole entry) above
For assay [8] the target is unchanged. As to the kind of experiment: Tested for the binding affinity, for displacement of [3H]-CGS- 21680 in A2a receptors of rat striatal membrane at 10e-4 concentration (M).
In assay [9] the target is T4, Adenosine receptor A1 (Rattus norvegicus) (UniProt P25099).
T4 sequence (whole entry): T2 sequence (P25099 whole entry)
As to the kind of experiment: Tested for the binding affinity, for displacement of [3H]PIA in A1 receptors of rat brain membrane at 10e-4 concentration (M). The assay is classed as cell membranes.

Assay [10] concerns the target T1, Adenosine receptor A3 (Rattus norvegicus). As to the kind of experiment: Tested for the binding affinity, for displacement of [125I]AB-MECA in membranes of CHO cells stably transfected with the rat A3-cDNA at the 10e-4 concentration (M). The assay is classed as cell membranes.

In the case of `CCCCn1c(=O)c2nc(-c3ccc(OCC(=O)O)cc3)[nH]c2n(CCCC)c1=O`, in assay [1], the Ratio came out at 640.

In assay [2], `Cn1c(=O)c2c(nc(/C=C/c3cccc(Cl)c3)n2C)n(C)c1=O` showed an inhibition of 4.2%.

For the compound `CCCn1c(=O)c2nc(-c3ccc(/C=C/C(=O)O)cc3)[nH]c2n(CCC)c1=O`, affinity in [3] was put at a Ki of 0.8 µM.

On to `CCCCn1c(=O)c2c(nc(/C=C/C(=O)OC)n2C)n(CCCC)c1=O`, for which the inhibition constant Ki is 0.793 µM in assay [4] and 5.85 µM in assay [3].

As to `CCCn1c(=O)c2[nH]c(C3CCCC3)nc2n(CCC)c1=O` [1,3-DIPROPYL-8-CYCLOPENTYLXANTHINE [DPCPX]], the affinity in [5], expressed as Ki, was 5.29 µM.

As to `CCCn1c(=O)c2nc(-c3ccc(OCC(=O)O)cc3)[nH]c2n(CCC)c1=S`, the Ratio in assay [1] was determined as 126.

Take `CCCCn1c(=O)c2nc(CCCCC(=O)O)[nH]c2n(CCCC)c1=O`: in assay [6], the inhibition was 13%.

Turning to `O=c1c2[nH]cnc2n(Cc2ccccc2)c(=O)n1Cc1ccccc1`, the results for the inhibition in assay [2] and in assay [7] were 20.3% and 3.6%, respectively. Besides, in assay [1], the Ratio was more than 10.

The compound `CCCn1c(=O)c2[nH]c(-c3ccc(OCC(=O)NCCN)cc3)nc2n(CCC)c1=O` [XANTHINE AMINE CONGENER] registered an inhibition constant Ki in assay [5] of 29 µM.

`Cn1c(=O)c2nc(CCCC(=O)O)[nH]c2n(C)c1=O`: the inhibition in assay [8] was found to be 26%; in [9] it was 0%. The Ratio in [1] is less than 1.

As for `CCCn1c(=O)c2nc(-c3ccc(OCC(=O)NCCNC(=O)CCC(=O)O)cc3)[nH]c2n(CCC)c1=O`, the inhibitory constant (Ki) in assay [4] turned out to be 0.078 µM; in assay [5], 40.6 µM; in assay [3], 0.252 µM. The Ratio in assay [1] amounted to 520.

`CCCCn1c(=O)c2nc(/C=C/C(=O)O)[nH]c2n(CCCC)c1=O`: the Ki in assay [4] was 3.37 µM; in [5], 73.7 µM; in [3], 16.5 µM. The Ratio in assay [1] was 22.

Take `CCCn1c(=O)c2nc(-c3ccc(OCC(=O)O)cc3)[nH]c2n(CCC)c1=O`: the Ratio in assay [1] was 1300.

For `CCCn1c(=O)c2nc(-c3ccc(OCC(=O)NCCNC(=O)CN(CC(=O)O)C(=O)CCC(=O)O)cc3)[nH]c2n(CCC)c1=O`, the Ki in assay [4] came to 2.86 µM; in assay [5], 99.9 µM; in assay [3], 9.22 µM. The Ratio in assay [1] was 35.

For `CCCn1c(=O)c2[nH]c(-c3ccc(OCC(=O)O)cc3)nc2n(CCC)c1=S`, the Ki worked out at 6.77 µM in assay [5] and 0.226 µM in assay [3].

For `Cn1c(=O)c2c(nc(/C=C/c3cccc(NC(=O)CCCC(=O)O)c3)n2C)n(C)c1=O`, the inhibitory constant (Ki) in [4] came out at 22.3 µM; in assay [5], 289 µM; in [3] it was 0.0099 µM. Also, the Ratio in [1] came out at 13.

On to `CCCn1c(=O)c2[nH]c(-c3ccc(OCC(=O)NCCNC(=O)CNCC(=O)O)cc3)nc2n(CCC)c1=O`, for which the values for the Ki in assay [4], in [5] and in [3] were 0.036 µM, 98 µM and 0.157 µM, respectively.

As for `CCCn1c(=O)c2nc(-c3ccc(OCC(=O)NCC(=O)O)cc3)[nH]c2n(CCC)c1=O`, the Ki came to 0.073 µM in assay [4], 58.5 µM in assay [5] and 0.455 µM in [3]. The Ratio in assay [1] was determined as 800.

On to `CCCCn1c(=O)c2nc(CCCC(=O)O)[nH]c2n(CCCC)c1=O`, for which the Ki is 133 µM in [5] and 113 µM in [3]. In [1], the Ratio worked out at 9.4.

For the compound `CCCn1c(=O)c2[nH]c(-c3ccc(S(=O)(=O)O)cc3)nc2n(CCC)c1=O`, in assay [5], affinity was put at a Ki of 90.1 µM.

In the case of `CCCn1c(=O)c2nc(-c3ccc(OCC(=O)NCCNC(=O)CNCC(=O)O)cc3)[nH]c2n(CCC)c1=O`, in [1], the Ratio was found to be 2700.

With `C=CCn1c(=O)c2nc(-c3ccc(OCC(=O)O)cc3)[nH]c2n(CC=C)c1=O`, the Ratio in assay [1] worked out at 230.

On to `CCCCn1c(=O)c2nc[nH]c2n(CCCC)c1=O`, for which the Ratio in [1] came out at 290.

In turn, `Cn1c(=O)c2c(ncn2Cc2ccccc2)n(C)c1=O` displayed an inhibitory constant (Ki) in assay [3] of 46 µM. Besides, the Ratio in assay [1] is more than 10. Moreover, in assay [10], the inhibition amounted to 29.7%.

Take `Cn1c(=O)c2c(nc(/C=C/c3cccc(NC(=O)CCC(=O)O)c3)n2C)n(C)c1=O`: the inhibition constant Ki in assay [4] came out at 20.5 µM; in assay [5], 189 µM; in assay [3] it was 0.0129 µM. Moreover, in [1], the Ratio stood at 9.2.

In assay [5], `CCCn1c(=O)c2nc(-c3ccc(OCC(=O)NCCNC(=O)CN(CC(=O)O)C(=O)OCC4c5ccccc5-c5ccccc54)cc3)[nH]c2n(CCC)c1=O` had a Ki of 21.7 µM. Also, in assay [1], the Ratio is 1100.

Turning to `CCCCn1c(=O)c2nc(CCC(=O)O)[nH]c2n(CCCC)c1=O`, the inhibition constant (Ki) in assay [4] was 7.11 µM; in assay [5], 129 µM; in [3], 71.7 µM. Further, the Ratio in assay [1] came out at 18.

As to `Cn1c(=O)c2[nH]c(CCCC(=O)O)nc2n(C)c1=O`, in [5], affinity was put at a Ki of 93.4 µM.

Regarding `CCCCn1c(=O)c2nc[nH]c2n(Cc2ccccc2)c1=O`, the inhibition constant (Ki) in assay [4] worked out at 0.668 µM; in assay [5], 74.2 µM; in assay [3], 1.2 µM. Moreover, in assay [1], the Ratio came out at 110.

Regarding `CCCCCCn1c(=O)c2nc[nH]c2n(CCCCCC)c1=O`, the inhibition in assay [2] came out at 9.2%; in assay [7], 14.3%. Further, the Ratio in [1] was more than 10.

In the case of `Cn1c(=O)c2c(nc(/C=C/c3cccc(NC(=O)CCCCC(=O)O)c3)n2C)n(C)c1=O`, the inhibition constant Ki worked out at 6.51 µM in [4], 234 µM in [5] and 0.00722 µM in [3]. Further, in assay [1], the Ratio was determined as 36.

Turning to `Cn1c(=O)c2c(nc(/C=C/C(=O)O)n2C)n(C)c1=O`, in assay [5], the Ki stood at 130 µM. In addition, the Ratio in assay [1] was less than 1.

`CCCn1c(=O)c2nc(-c3ccc(C(=O)O)cc3)[nH]c2n(CCC)c1=O`: the inhibition constant Ki in assay [5] is 45.1 µM; in [3], 0.637 µM. In assay [1], the Ratio came to 230.

For the compound `CCCn1c(=O)c2nc(-c3ccc(S(=O)(=O)O)cc3)[nH]c2n(CCC)c1=O`, in assay [1], the Ratio was 640.

Turning to `CCCCn1c(=O)c2[nH]c(CCCCC(=O)O)nc2n(CCCC)c1=O`, the inhibition constant Ki in assay [4] turned out to be 5.27 µM; in assay [3] it was 20 µM.

Regarding `CCCn1c(=O)c2nc(-c3ccc(OCC(=O)O)cc3)[nH]c2n(Cc2ccc(N)c(I)c2)c1=O`, the Ki amounted to 0.037 µM in [4], 1.17 µM in assay [5] and 0.7 µM in assay [3]. Moreover, in assay [1], the Ratio was 32.

In assay [10], `Cn1c(=O)c2c(ncn2C)n(C)c1=O` showed an inhibition of 30.1%.

On to `CCCCn1c(=O)c2c(nc(/C=C/C(=O)O)n2C)n(CCCC)c1=O`, for which the Ki is 5.91 µM in assay [4], 127 µM in assay [5] and 23.2 µM in assay [3]. Also, the Ratio in assay [1] is 21.

In the case of `Cn1c(=O)c2nc(CCCC(=O)O)[nH]c2n(C)c1=S`, the inhibition constant Ki was determined as 5.7 µM in [4], 9.36 µM in [5] and 67.8 µM in assay [3]. In addition, the Ratio in assay [1] came to 1.6.

For `CCCCn1c(=O)c2[nH]cnc2n(CCCC)c1=O`, the Ki in assay [4] came out at 0.5 µM; in [3], 29.3 µM.
